# Measured values published in patent US12453737B2, “Method for hydrating lyophilized cyclophosphamide composition and product thereof” (priority 2018, dated 2025).
# Read-outs that look alike come from different tables or passages of the source.
# Key:
# [1] = type: physicochemical; settings: no strength, no hydration solution
# Description: TD of the test sample is measured as per the Method I described in USP <616> which is obtained by mechanically tapping a graduated measuring cylinder (TAP Density Tester, Sotax TD2) containing the test sample.
# [2] = type: physicochemical; settings: hydration solution NA, 0.9% sodium chloride, 250 rpm, room temperature
# Description: Then the glass vial was placed on cyclotron (HY-5, Shanghai Suhao intelligent system Co. Ltd) making the glass vial oscillate at 250 rpm at room temperature to dissolve the active ingredient completely. The redissolving time was recorded in Table 18.
# [3] = type: physicochemical; settings: no hydration solution
# Description: The hydrated CPP freeze-dried composition was stirred by weighting scoop gently until flowable powder comes into being. Then 1-2 g test sample was added on injection plate. Test method and parameters were as follows:
# It will be understood by a person of ordinary skill in the art that a common approach to defining the distribution width is to cite three values on the x-axis, the D10, D50, and D90. As used herein, the term (“D50” refers to the median particle diameter, wherein half of the particle population has a diameter below such value. As used herein, the teed “D90,” refers to the particle diameter wherein 90% of the particle population has a diameter below such value. As used herein, the term “D10,” refers to the particle diameter wherein 10% of the particle population has a diameter below such value. PSD results were listed in Table 19.
# [4] = type: physicochemical; settings: reconstituted with 0.9% sodium chloride injection to 20 mg/ml
# Description: Then content and impurity profiles in Room Temperature (RT) and Refrigerator (2-8° C.) are determined respectively.
# [5] = Skeletal density (gas pycnometer); type: physicochemical; settings: no strength, no hydration solution
# Description: Skeletal Density, also known as true density, is determined at room temperature by Gas Pycnometer (Micromeritics Accupyc II 1340).
# [6] = type: physicochemical; settings: hydration pressure 50 kPa
# [7] = type: physicochemical; settings: strength NA, hydration solution NA
# Description: BD is calculated by the following formula: BD (g/mL)=W/V0 • wherein • W is the theoretical weight, g; • V0 is the macroscopic volume, mL. • V0 is calculated by the following formula: V0 (mL)=πD^2h/4 • wherein • D is the theoretical inside diameter, cm; • h is the height, cm.
# [8] = Stability in 45° C. oven, CPP content; type: physicochemical; settings: raw material, comparison
# Description: The moisture content, CPP content and redissolving time were determined for CPP freeze-dried composition hydrated with saturated sodium chloride solution in the freeze-drying box, respectively. In addition, the CPP freeze-dried compositions hydrated for 16 h and 24 h were placed in 45° C. oven and sampled for determining CPP contents after 1 week and 2 weeks, respectively.
# Moisture content, CPP content and redissolving time were determined for CPP freeze-dried composition hydrated with saturated sodium chloride solution in the dryer, respectively. In addition, the CPP freeze-dried composition hydrated for 16 h was placed in 45° C. oven, sampled after 1 week and 2 weeks, respectively and determined for CPP contents. The CPP freeze-dried composition hydrated for 16 h was placed in 40° C./75% RH stability test chamber, was sampled after 1 month and 3 months, and determined for CPP contents, which were compared with CPP monohydrate obtained by prior art hydrating process.
# The moisture content, CPP content and redissolving time were determined for CPP freeze-dried composition hydrated with saturated potassium sulfate solution in the dryer, respectively. In addition, the CPP freeze-dried composition hydrated for 16 h was placed in 45° C. oven and was sampled for determining CPP contents after 1 week and 2 weeks, respectively. […]
# [9] = Stability in 40° C./75% RH stability test chamber, CPP content; type: physicochemical; settings: raw material, comparison
# Description: The CPP freeze-dried composition hydrated for 16 h was placed in 40° C./75% RH stability test chamber, was sampled after 1 month and 3 months, and determined for CPP contents, which were compared with CPP monohydrate obtained by prior art hydrating process.
# The CPP freeze-dried composition hydrated for 16 h was placed in 40° C./75% RH stability test chamber, sampled after 1 month and 3 months for determining CPP contents.
compound,measurement,setting,value
"O=P1(N(CCCl)CCCl)NCCCO1 (stereo not drawn) [P—[N,N-bis(β-chloroethyl)]-1-oxa-3-aza-2-phosphocyclohexane-P-oxide]",Tapped Density,[1],0.9369 g/mL
same,Redissolving Time,[2]; strength 0.5 g,8.7 min
same,Redissolving Time,[2]; strength 1 g,11.2 min
same,Redissolving Time,[2]; strength 2 g,16.4 min
same,D10 (μm),[3],5.6 μm
same,D50 (μm),[3],34.8 μm
same,D90 (μm),[3],262.0 μm
same,Impurity A,[4]; 0 h (initial),0.03
same,Impurity B,[4]; 0 h (initial),0.03
same,Impurity D,[4]; 0 h (initial),0.00
same,Individual unknown impurity,[4]; 0 h (initial),0.08
same,Total impurities,[4]; 0 h (initial),0.15
same,Content,[4]; 3 Days (2-8° C.),96.7%
same,Impurity A,[4]; 3 Days (2-8° C.),0.00
same,Impurity B,[4]; 3 Days (2-8° C.),0.45
same,Impurity D,[4]; 3 Days (2-8° C.),0.00
same,Individual unknown impurity,[4]; 3 Days (2-8° C.),0.09
same,Total impurities,[4]; 3 Days (2-8° C.),0.57
same,Content,[4]; 6 Days (2-8° C.),95.2%
same,Impurity A,[4]; 6 Days (2-8° C.),0.00
same,Impurity B,[4]; 6 Days (2-8° C.),0.64
same,Impurity D,[4]; 6 Days (2-8° C.),0.00
same,Individual unknown impurity,[4]; 6 Days (2-8° C.),0.12
same,Total impurities,[4]; 6 Days (2-8° C.),0.77
same,Content,[4]; 6 h (RT),95.3%
same,Impurity A,[4]; 6 h (RT),0.00
same,Impurity B,[4]; 6 h (RT),0.71
same,Impurity D,[4]; 6 h (RT),0.00
same,Individual unknown impurity,[4]; 6 h (RT),0.06
same,Total impurities,[4]; 6 h (RT),0.81
same,Content,[4]; 12 h (RT),96.7%
same,Impurity A,[4]; 12 h (RT),0.00
same,Impurity B,[4]; 12 h (RT),1.01
same,Impurity D,[4]; 12 h (RT),0.05
same,Individual unknown impurity,[4]; 12 h (RT),0.14
same,Total impurities,[4]; 12 h (RT),1.33
same,Content,[4]; 24 h (RT),97.0%
same,Impurity A,[4]; 24 h (RT),0.03
same,Impurity B,[4]; 24 h (RT),1.82
same,Impurity D,[4]; 24 h (RT),0.30
same,Individual unknown impurity,[4]; 24 h (RT),0.47
same,Total impurities,[4]; 24 h (RT),2.64
same,Skeletal Density,[5],1.4286 g/mL
same,Content (%),[6]; 45° C. -1 Week,82.6%
same,Impurity A (%),[6]; 45° C. -1 Week,0.65%
same,Impurity B (%),[6]; 45° C. -1 Week,0.61%
same,Impurity D (%),[6]; 45° C. -1 Week,0.71%
same,Max. individual unknown impurity (%),[6]; 45° C. -1 Week,2.01%
same,Total impurities (%),[6]; 45° C. -1 Week,5.66%
same,Content (%),[6]; 45° C. -2 Weeks,45.8%
same,Impurity A (%),[6]; 45° C. -2 Weeks,1.82%
same,Impurity B (%),[6]; 45° C. -2 Weeks,1.40%
same,Impurity D (%),[6]; 45° C. -2 Weeks,0.98%
same,Max. individual unknown impurity (%),[6]; 45° C. -2 Weeks,1.56%
same,Total impurities (%),[6]; 45° C. -2 Weeks,15.59%
same,Bulk Density,[7],0.6246 g/mL
"O=P1(N(CCCl)CCCl)NCCCO1 (stereo not shown) [CPP monohydrate raw material, Cyclophosphamide monohydrate]",Stability-CPP content % 45° C.-2 weeks,[8],101.8%
same,Stability-CPP content % 40° C./75% RH-3 months,[9],86.1%
